According to US7943376B2, “Platelet derived growth factor (PDGF)-derived neurospheres define a novel class of progenitor cells” (Stem Cell Therapuetics Inc., priority 2001, dated 2011):
Several values for one entry are separate records, joined by “and”; a condition that tells them apart may be missing. Equal entries are not always repeated. Entries after “also recorded” stand apart in the source; their conditions may differ.

Assays:
[1] = tested on: PDGF primary neurospheres; assay: Secondary neurosphere formation from dissociated PDGF-derived primary neurospheres; format: cell-based, mouse; conditions: single PDGF primary neurospheres dissociated in 20 ng/ml EGF or 100 ng/ml PDGF-AA; 7 or more days in vitro
Protocol: Single PDGF primary neurospheres prepared as described in Example 1 were transferred into 96-well plates and mechanically dissociated in either the presence of 20 ng/ml EGF (Peprotech) or 100 ng/ml PDGF-AA. The formation of secondary neurospheres was assayed after 7 or more days in culture in vitro.

[2] = tested on: primary EGF neurospheres; assay: Secondary neurosphere formation from dissociated EGF-derived primary neurospheres; format: cell-based, mouse; conditions: single primary EGF-generated neurospheres dissociated in EGF- or PDGF-containing media; eight wells per condition; Exp. #1 and #2
Protocol: To determine if the neurospheres derived in EGF-containing media have different proliferation properties as those of PDGF-generated neurospheres, primary EGF neurospheres were generated from embryonic day 14 striatum by culturing dissociated striatum in EGF (20 ng/ml) containing define culture media at a cell density of 200,000 cells/ml. Subsequently, individual neurospheres were isolated, placed in individual wells in either PDGF or EGF containing media, and dissociated mechanically. The numbers of secondary neurospheres that came from a single primary EGF-generated neurospheres are given below (eight wells for each condition; numbers indicate average number of secondary neurospheres/well): […]

[3] = tested on: medial ganglionic eminence (MGE); assay: Neurosphere formation using medial ganglionic eminence; format: cell-based, mice; conditions: MGE from E14 embryos, cultured as in Example 1 with EGF or PDGF; n = 2 or 3
From the text: (§1) In order to locate the cells that give rise to the novel progenitor cells described herein, we dissected ganglionic eminence to two portions. Thus, the ganglionic eminence was isolated from E14 embryos of mice, and the medial ganglionic eminence (MGE) was separated from the lateral ganglionic eminence (LGE). MGE and LGE were then dissociated and cultured as described in Example 1. The resulting primary culture was exposed to EGF or PDGF in addition to the defined culture media, and the number of neurospheres were counted and summarized below.

[4] = tested on: lateral ganglionic eminence (LGE); assay: Neurosphere formation using lateral ganglionic eminence; format: cell-based, mice; conditions: LGE from E14 embryos, cultured as in Example 1 with EGF or PDGF; n = 2 or 3
From the text: as §1

[5] = tested on: brain tissue prepared as described in Example 1 (E14 striatum); assay: Combined effect of PDGF and EGF on number of neurospheres formed; format: cell-based, mouse; conditions: cultured in PDGF, EGF, or the combination of PDGF and EGF
Protocol: (§2) E14 striatum was mechanically dissociated as previously described (for example see U.S. Pat. Nos. 5,750,376; 5,980,885; or 5,851,832) and plated at 10,000 cells/ml in 6 well plates in defined culture media plus 100 ng/ml of PDGF-AA (Peprotech). The composition of defined culture media is as follows: • DMEM/F12 (1:1) • glucose (0.6%) • glutamine (2 mM) • sodium bicarbonate (3 mM) • HEPES (5 mM) • insulin (25 μg/ml) • transferrin (100 μg/ml) • progesterone (20 nM) • putrescine (60 μM) • selenium chloride (30 nM)
We also tested the effect of combining PDGF and EGF on the number of neurospheres formed. Thus, brain tissue was prepared as described in Example 1 and cultured in the presence of PDGF, EGF, or the combination of PDGF and EGF.

[6] = tested on: E14 striatum; assay: PDGF-induced production of primary neurospheres from dissociated E14 striatum; format: cell-based, mouse
Protocol: as §2
Neurospheres, which are clusters of neural cells derived from single cells, formed after 7 days of culture in vitro (DIV). Six wells per experiment were counted for neurosphere production and the results are shown below:
In control experiments, wherein PDGF was omitted from the culture media, no neurospheres formed. Therefore, PDGF is capable of inducing neurosphere production from single precursor cells in the absence of serum, EGF, TGF-α and FGF-2.

[7] = tested on: PDGF-derived neurospheres; assay: Effect of Tyrphostin AG 1296 on primary neurosphere formation in response to PDGF; format: cell-based, mouse
Protocol: (§3) In order to determine if the PDGF-induced primary neurosphere formation is mediated by the PDGF receptor kinase, a selective PDGF receptor kinase inhibitor, Tyrphostin AG 1296, was added to neurosphere culture. Primary cells were cultured at 10,000 cells/ml in the presence of either EGF or PDGF, plus 5 μM of Tyrphostin AG 1296 (Sigma) or DMSO in the same volume as Tyrphostin (DMSO being the solvent for Tyrphostin). Results are expressed below as the percentage of neurospheres formed, with the number of PDGF- or EGF-derived neurospheres arbitrarily set at 100%, respectively.

[8] = tested on: EGF-derived neurospheres; assay: Effect of Tyrphostin AG 1296 on primary neurosphere formation in response to EGF; format: cell-based, mouse
Protocol: as §3

## EGF: epidermal growth factor (Peprotech), used at 20 ng/ml
[1]
  Average # of secondary neurospheres formed/well: 3.12 ± 1.64 (n = 3)
[2]
  average number of secondary neurospheres/well: 27 and 14.1
[3]
  Average number of neurospheres: 16.9 ± 2.87
[4]
  Average number of neurospheres: 9.64 ± 1.59
[5]
  Average number of neurospheres: 80.5 ± 8.57

## PDGF: platelet derived growth factor; PDGF-AA (Peprotech) used at 100 ng/ml
[6]; 100 ng/ml PDGF-AA, 10,000 cells/ml, 7 DIV, mean over six experiments
  Average number of neurospheres produced/well, average of experiments 1-6: average = 17.7 ± 5.0
[6]; 100 ng/ml PDGF-AA, 10,000 cells/ml, defined media, 7 DIV, single experiments, six wells each
  Average number of neurospheres produced/well: 14.5 and 9.2 and 8.6 and 7.7
[6]; as E1, experiments marked *: PDGF used immediately after reconstitution in defined culture media
  Average number of neurospheres produced/well: 34.3* and 32.5*
[6]; relative to PDGF not used immediately after reconstitution
  Potency when used immediately after reconstitution in defined culture media: *PDGF appears to be approximately 3 fold more potent when used immediately after reconstitution in defined culture media.
[1]
  Average # of secondary neurospheres formed/well: 0
[2]
  average number of secondary neurospheres/well: 21.5 and 26.7
[3]
  Average number of neurospheres: 10.22 ± 1.11
[4]
  Average number of neurospheres: 1.27 ± 0.45
[5]
  Average number of neurospheres: 73.36 ± 7.13

## Tyrphostin AG 1296
[7]; 5 μM Tyrphostin AG 1296
  Effect on primary neurosphere formation induced by PDGF (in words): inhibited; also recorded: almost abolished
[7]; PDGF plus 5 μM Tyrphostin AG 1296, 10,000 cells/ml, PDGF alone set at 100%, n = 3 to 9
  percentage of neurospheres formed: 10%
[8]; 5 μM Tyrphostin AG 1296
  Effect on EGF-derived neurosphere formation (in words): inhibited by Tyrphostin AG 1296 to some extent
[8]; EGF plus 5 μM Tyrphostin AG 1296, 10,000 cells/ml, EGF alone set at 100%, n = 3 to 9
  percentage of neurospheres formed: 55%
